Measurements taken from patent publication US20250262188A1, “Methods of Increasing the Plasma Drug Exposure of Anticancer Agents” (Scandion Oncology A/S, priority 2021, published 2025).
pEC50: −log10 of the molar value.

Assays:
[1] = Plasma concentrations of SCO-101 and SN-38 in patients upon repeated administration of SCO-101 (Example 1); type: in vivo, human; conditions: 150 mg SCO-101 repeated every 24 hours, FIG. 1D
Experimental: On days 1, 2, 3, 4, 5 and 6 in each treatment cycle, patients received one fixed daily dose of 150 mg SCO-101 taken in the morning at least 30 minutes before ingestion of food. On day 5 to 7, patients received FOLFIRI as specified for Colorectal cancer combination regimen 2. Blood samples were taken from patients at predefined timepoints according to the study protocol. During the first cycle of treatment, blood samples for pharmacokinetic analysis of SCO-101, irinotecan, and SN-38 were taken as follows: • Day 1; (pre-SCO-101 administration, 1; 4; 5; 6; 8); only for PK analysis of SCO-101 • Day 2; […] (pre-SCO-101 administration, 1; 4; 5; 6; 8) • Day 6; […] (48 hours), • Day 9; (96 hours). Blood samples were collected in 4 mL blood-collection tubes using lithium heparin as the anti-coagulant. Blood samples were centrifuged, and the resulting plasma is withdrawn and stored at −70° C. until analysis. […] The method and system, including validation were according to industry standard. Data were analysed using commercially available software such as Win-Non-Lin (available from Certara inc.) SCO-101 and Irinotecan was administered as described in the materials and methods section. Blood samples were withdrawn and analysed as specified. […] Raw data was then plotted using win-non-lin software to obtain relevant pharmacokinetic parameters, e.g. Cmax and AUC. […]

[2] = SN-38 PK profile and tolerability in metastatic colorectal cancer patients treated with SCO-101 and FOLFIRI (Example 2); type: in vivo, human
Experimental: Patients with metastatic colorectal cancer were included in a study and treated with a combination of SCO-101 and FOLFIRI (combination of irinotecan, 5-FU and leucovorin) in 14 day treatment cycles. Patients received varying doses of Irinotecan between 50% and 80% of the recommended dose of Irinotecan (180 mg/m^2) according to their individual tolerability, which is standard practise. On days 1, 2, 3, 4, 5 and 6 in each treatment cycle, patients received one fixed daily dose of 150 mg SCO-101 taken in the morning at least 30 minutes before ingestion of food. On day 5 to 7, patients received FOLFIRI as specified for Colorectal cancer combination regimen 2.
Blood plasma samples were analysed for concentrations of SCO-101, irinotecan and SN-38 using Liquid Chromatography with Tandem Mass Spectrometric Detection (LC-MS/MS) bioanalytical method calibrated and validated in the rant 300 to 90.000 ng/ml. The method and system, including validation were according to industry standard. Data were analysed using commercially available software such as Win-Non-Lin (available from Certara inc.)
A trial was setup to address the safety, tolerability, and efficacy of SCO-101 given orally for 6 days followed by FOLFIRI at varying doses from day 5 to 7, in a biweekly schedule, in patients with metastatic colorectal cancer who have formerly been treated with FOLFIRI and afterwards progressed. The first part of the study was a dose-finding study, where the impact of SCO-101 on the pharmacokinetics (PK) of SN-38 was studied.
12 patients from the dose-finding part of the study received 150 mg SCO-101 for 6 days and […] of the recommended dose of FOLFIRI. 6 of the patients had RAS wildtype tumors and these patients were subjected to further analysis.
Blood for pharmacokinetic analysis was sampled from the patients were taken at 1, 2, 4, 8, 24, 48, and 96 hours after treatment with FOLFIRI and SCO-101.

[3] = biological target: T1, BCRP (Homo sapiens, UniProt Q9UNQ0); assay: 3H-SN-38 uptake in HT29 parental cell monolayers (Example 6); type: cell-based
T1 construct: endogenous in cells; host or cells: HT29 parental and HT29 SN38-resistant colorectal cancer cells
T1 sequence (Q9UNQ0 1-655): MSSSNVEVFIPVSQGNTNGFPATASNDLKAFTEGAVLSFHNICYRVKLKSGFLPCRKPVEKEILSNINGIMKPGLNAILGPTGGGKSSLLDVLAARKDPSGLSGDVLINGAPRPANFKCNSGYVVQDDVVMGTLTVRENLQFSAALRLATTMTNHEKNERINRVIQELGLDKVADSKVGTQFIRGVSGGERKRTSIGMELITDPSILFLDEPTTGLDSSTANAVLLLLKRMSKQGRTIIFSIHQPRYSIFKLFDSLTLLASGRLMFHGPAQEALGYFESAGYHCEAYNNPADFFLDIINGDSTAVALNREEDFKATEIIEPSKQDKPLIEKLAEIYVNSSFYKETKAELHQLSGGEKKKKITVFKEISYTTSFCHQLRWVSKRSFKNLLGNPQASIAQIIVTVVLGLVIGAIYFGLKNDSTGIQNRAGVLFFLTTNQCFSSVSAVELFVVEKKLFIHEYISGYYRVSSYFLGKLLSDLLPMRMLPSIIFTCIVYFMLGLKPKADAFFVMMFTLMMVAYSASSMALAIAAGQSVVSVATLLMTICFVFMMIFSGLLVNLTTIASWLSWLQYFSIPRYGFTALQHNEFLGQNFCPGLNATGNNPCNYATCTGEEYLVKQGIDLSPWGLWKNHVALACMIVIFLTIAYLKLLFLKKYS
Experimental: All treatments were investigated in three technical replicates (N=3). On the day of experimentation, the culture media was exchanged with 100 μL transport buffer (HBSS, 0.05% BSA, 10 mM HEPES, pH 7.4) and cells were incubated for 15 minutes at 37° C.
Subsequently, the blank transport buffer was exchanged with 50 μL transport buffer containing the different compounds (in 2x of the final concentration) to be tested and incubated for 15 minutes at 37° C. The uptake experiment was started by adding 50 μL of ^3H-SN38 at a concentration of 2 μCi/mL to all wells (the resulting concentration of ^3H-SN38 during the experiment was 1 μCi/mL). The uptake experiment was stopped after 15 minutes of incubation at 37° C. by removing the transport buffer from all wells.
The cell monolayers were subsequently washed twice by adding/removing ice-cold transport buffer twice and finally the cell monolayers were lysed by incubation in 100 μl of 0.1% TritonX-100 for 15 minutes at ambient temperature. Cell lysates were transferred to scintillation vials containing 2 mL of scintillation fluid (Ultima Gold, PerkinElmer). Each well was washed with 2×100 μL purified water (milliQ), which was also transferred to respective scintillation vials.

Q: For `O=C(Nc1cc(C(F)(F)F)cc(C(F)(F)F)c1)Nc1ccc(Br)cc1-c1nnn[nH]1` [SCO-101], which “SCO-101 plasma level at which levels stabilize over time” value ([1]; modelled from patient data) is on record?
A: Its value is “around 55 μg/mL”.

Q: What about the half-life ([1]; human, plasma, oral, read-out: SCO-101 half-life after stopping the administration (converted)) of the same compound?
A: The half-life was roughly 24 h.

Q: And the “Tolerability of the combined treatment” value ([2]; SCO-101 in combination with FOLFIRI, metastatic colorectal cancer patients)?
A: The value was “well tolerated”.

Q: What about the “Toxicity profile (adverse events)” value ([2]; patients treated with SCO-101 and 90 mg irinotecan/m2 (50% FOLFIRI)) of the same compound?
A: The value was “only grade 1 and 2 adverse events”.

Q: What about the “Uptake of SN-38 in the presence vs absence of SCO-101, all seeded cell densities” value ([3]; 25 μM SCO-101, HT29 parental) of the same compound?
A: Its value is “increased uptake”.

Q: What about the “Uptake of SN-38 relative to blank HBSS transport buffer control” value ([3]; 25 μM test compound, HT29 parental, ANOVA α=0.05) of the same compound?
A: The value was “significantly increased”.

Q: What about the pEC50 ([3]; HT29 parental cell monolayers, read-out: Estimated EC50-value for increase in uptake of SN-38) of the same compound?
A: The pEC50 was 5.04.

Q: And the “Uptake of SN-38 with increasing concentrations of SCO-101” value ([3]; SCO-101 100 to 0.5 μM, HT29 parental)?
A: The value was “concentration-dependent increase”.
